This note sets out measurements from the supplement of paper PMC4862054.

Each structure is given as a SMILES string.

What all share (assay): normalised viability (% of control), CellTiter-Blue; higher = more viable cells (about 100 = DMSO control)
Common to all, as to details: incubation time: 72 h

Experiment [1] deals with DU-4475. As to the method:
(§1)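 DSRT, CellTiter-Blue viability, 72 h incubation. Signal is normalised to DMSO and benzethonium chloride controls. Value is the normalised response at dose 6.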

Experiment [2] concerns CAL-51. On the procedure: as §1
Experiment [3] deals with MDA-MB-453. As to the method:
as §1

For experiment [4], the system named is HDQ-P1. As to the method:
as §1

Experiment [5] concerns CAL-148. As to the method:
as §1

Experiment [6] has as its system CAL-85-1. As to the method:
as §1

In experiment [7] the test system is DU-4475. On the procedure:
(§2)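 DSRT, CellTiter-Blue viability, 72 h incubation. Signal is normalised to DMSO and benzethonium chloride controls. Value is the normalised response at dose 8.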
The source holds these as a separate data set.

Experiment [8] has as its system CAL-51. On the procedure:
as §2
This is another data set of the same source.

Experiment [9] deals with MDA-MB-453. On the procedure: as §2
The source holds these as a separate data set.

For experiment [10], the system named is HDQ-P1. On the procedure: as §2
This is another data set of the same source.

The subject of experiment [11] is CAL-148. On the procedure: as §2
The source holds these as a separate data set.

Experiment [12] relates to CAL-85-1. On the procedure:
as §2
The source holds these as a separate data set.

The test system of experiment [13] is DU-4475. On the procedure: (§3)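 DSRT, CellTiter-Blue viability, 72 h incubation. Signal is normalised to DMSO and benzethonium chloride controls. Value is the normalised response at dose 7.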
This is another data set of the same source.

Experiment [14] has as its system CAL-51. On the procedure:
as §3
The source holds these as a separate data set.

Experiment [15] relates to MDA-MB-453. On the procedure: as §3
This is another data set of the same source.

The test system of experiment [16] is HDQ-P1. As to the method:
as §3
This is another data set of the same source.

In experiment [17] the test system is CAL-148. As to the method:
as §3
The source holds these as a separate data set.

The subject of experiment [18] is CAL-85-1. As to the method:
as §3
The source holds these as a separate data set.

As to `COCC1(CO)C(=O)C2CCN1CC2` (centres undefined) [Prima-1 Met] (300 nM), the normalised viability with DU-4475 [1] worked out at 116%; in the experiment on CAL-51 [2], 91.2%; in the experiment with MDA-MB-453 [3], 87.1%; in the experiment with HDQ-P1 [4], 53.8%; with CAL-148 [5] it was 94.5%; in the experiment with CAL-85-1 [6], 83.3%.

On to `COCC1(CO)C(=O)C2CCN1CC2` (centres undefined) [Prima-1 Met] (3000 nM), for which the normalised viability was 101% in the experiment on DU-4475 [7]; 97.2% in the experiment on CAL-51 [8]; 100% in the experiment on MDA-MB-453 [9]; 77.5% in the experiment on HDQ-P1 [10]; 89.1% in the experiment on CAL-148 [11]; 91.4% in the experiment with CAL-85-1 [12].

For `CNC(=O)c1cc(Oc2ccc(NC(=O)Nc3ccc(Cl)c(C(F)(F)F)c3)c(F)c2)ccn1` [Regorafenib] (300 nM), the normalised viability in the experiment with DU-4475 [1] is 103%; with CAL-51 [2], 100%; in the experiment with MDA-MB-453 [3], 95.6%; in the experiment on HDQ-P1 [4] it was 89.8%; in the experiment on CAL-148 [5] it was 93.6%; in the experiment on CAL-85-1 [6], 85.3%.

As to `CNC(=O)c1cc(Oc2ccc(NC(=O)Nc3ccc(Cl)c(C(F)(F)F)c3)c(F)c2)ccn1` [Regorafenib] (3000 nM), the normalised viability was 67.6% in the experiment on DU-4475 [7]; 69.5% in the experiment on CAL-51 [8]; 53.1% in the experiment on MDA-MB-453 [9]; 88.4% with HDQ-P1 [10]; 95.8% in the experiment with CAL-148 [11]; 86.6% in the experiment with CAL-85-1 [12].

Turning to `CO[C@H]1C[C@@H]2CC[C@@H](C)[C@@](O)(O2)C(=O)C(=O)N2CCCC[C@H]2C(=O)O[C@H]([C@H](C)C[C@@H]2CC[C@@H](OP(C)(C)=O)[C@H](OC)C2)CC(=O)[C@H](C)/C=C(\C)[C@@H](O)[C@@H](OC)C(=O)[C@H](C)C[C@H](C)/C=C/C=C/C=C/1C` [Ridaforolimus] (30 nM), the normalised viability in the experiment with DU-4475 [1] was 54%; in the experiment on CAL-51 [2], 37.9%; in the experiment with MDA-MB-453 [3], 27.9%; in the experiment with HDQ-P1 [4] it was 72.4%; in the experiment with CAL-148 [5], 40.8%; in the experiment with CAL-85-1 [6], 53.8%.

As for `CO[C@H]1C[C@@H]2CC[C@@H](C)[C@@](O)(O2)C(=O)C(=O)N2CCCC[C@H]2C(=O)O[C@H]([C@H](C)C[C@@H]2CC[C@@H](OP(C)(C)=O)[C@H](OC)C2)CC(=O)[C@H](C)/C=C(\C)[C@@H](O)[C@@H](OC)C(=O)[C@H](C)C[C@H](C)/C=C/C=C/C=C/1C` [Ridaforolimus] (300 nM), the normalised viability stood at 51.7% with DU-4475 [7]; 35.5% with CAL-51 [8]; 28.5% in the experiment with MDA-MB-453 [9]; 65.8% with HDQ-P1 [10]; 34.2% with CAL-148 [11]; 55.4% in the experiment with CAL-85-1 [12].

Take `c1ccc2c(CCNc3ccc(Nc4ccncc4)cc3)c[nH]c2c1` [Serdemetan] (300 nM): the normalised viability in the experiment with DU-4475 [1] came out at 87.6%; in the experiment with CAL-51 [2], 108%; in the experiment with MDA-MB-453 [3], 109%; in the experiment on HDQ-P1 [4], 57.9%; with CAL-148 [5] it was 87.6%; in the experiment on CAL-85-1 [6], 87.7%.

In the case of `c1ccc2c(CCNc3ccc(Nc4ccncc4)cc3)c[nH]c2c1` [Serdemetan] (3000 nM), the normalised viability worked out at 79.5% with DU-4475 [7]; 88.5% in the experiment with CAL-51 [8]; 66.8% in the experiment with MDA-MB-453 [9]; 89% in the experiment on HDQ-P1 [10]; 67% with CAL-148 [11]; 67.1% with CAL-85-1 [12].

Take `S=P(N1CC1)(N1CC1)N1CC1` [Thio-TEPA] (3000 nM): the normalised viability with DU-4475 [1] came to 92.2%; in the experiment on CAL-51 [2] it was 94.8%; in the experiment with MDA-MB-453 [3], 95.5%; in the experiment with HDQ-P1 [4] it was 90.4%; in the experiment with CAL-148 [5] it was 91.2%; in the experiment on CAL-85-1 [6] it was 96.8%.

With `S=P(N1CC1)(N1CC1)N1CC1` [Thio-TEPA] (10000 nM), the normalised viability was determined as 96.6% in the experiment on DU-4475 [13]; 89.6% in the experiment on CAL-51 [14]; 121% in the experiment with MDA-MB-453 [15]; 113% in the experiment with HDQ-P1 [16]; 113% in the experiment with CAL-148 [17]; 91.3% with CAL-85-1 [18].

`S=P(N1CC1)(N1CC1)N1CC1` [Thio-TEPA] (30000 nM): the normalised viability in the experiment on DU-4475 [7] was 103%; with CAL-51 [8], 102%; in the experiment with MDA-MB-453 [9], 97%; in the experiment on HDQ-P1 [10] it was 108%; in the experiment with CAL-148 [11], 127%; in the experiment on CAL-85-1 [12] it was 97.8%.

`CN(C)CCOc1ccc(/C(=C(/CCCl)c2ccccc2)c2ccccc2)cc1` [Toremifene] (300 nM): the normalised viability with DU-4475 [1] came out at 99.7%; with CAL-51 [2], 104%; in the experiment on MDA-MB-453 [3], 101%; in the experiment on HDQ-P1 [4], 79.5%; with CAL-148 [5], 102%; in the experiment on CAL-85-1 [6] it was 101%.

For `CN(C)CCOc1ccc(/C(=C(/CCCl)c2ccccc2)c2ccccc2)cc1` [Toremifene] (3000 nM), the normalised viability in the experiment on DU-4475 [7] turned out to be 101%; with CAL-51 [8], 95.8%; in the experiment with MDA-MB-453 [9], 99.7%; in the experiment with HDQ-P1 [10], 113%; in the experiment on CAL-148 [11], 104%; in the experiment on CAL-85-1 [12], 109%.

Consider `CC(C)C[C@@H](C(=O)N[C@H](C(=O)OC1CCCC1)c1ccccc1)[C@H](O)C(=O)NO` [Tosedostat] (300 nM), for which the normalised viability in the experiment with DU-4475 [1] was 51.1%; in the experiment on CAL-51 [2], 86.5%; with MDA-MB-453 [3], 51.8%; with HDQ-P1 [4], 81.5%; in the experiment on CAL-148 [5], 78.1%; with CAL-85-1 [6], 92.8%.

Take `CC(C)C[C@@H](C(=O)N[C@H](C(=O)OC1CCCC1)c1ccccc1)[C@H](O)C(=O)NO` [Tosedostat] (3000 nM): the normalised viability is 48.1% in the experiment with DU-4475 [7]; 75.3% with CAL-51 [8]; 49.8% in the experiment with MDA-MB-453 [9]; 72.9% with HDQ-P1 [10]; 56.5% in the experiment on CAL-148 [11]; 61.1% with CAL-85-1 [12].

For the compound `COc1cc2/c(=N/c3ccc(Br)cc3F)nc[nH]c2cc1OCC1CCN(C)CC1` [Vandetanib] (300 nM), the normalised viability with DU-4475 [1] is 101%; with CAL-51 [2], 89.6%; with MDA-MB-453 [3] it was 97.5%; in the experiment with HDQ-P1 [4], 31.4%; with CAL-148 [5] it was 90.7%; with CAL-85-1 [6] it was 83.7%.

For the compound `COc1cc2/c(=N/c3ccc(Br)cc3F)nc[nH]c2cc1OCC1CCN(C)CC1` [Vandetanib] (3000 nM), the normalised viability with DU-4475 [7] was 125%; in the experiment on CAL-51 [8], 49.2%; in the experiment with MDA-MB-453 [9], 72.3%; in the experiment on HDQ-P1 [10], 27.5%; in the experiment with CAL-148 [11], 77%; in the experiment on CAL-85-1 [12], 50.5%.

As to `COCC[n+]1c2c(n(Cc3cnccn3)c1C)C(=O)c1ccccc1C2=O` [YM155] (300 nM), the normalised viability in the experiment with DU-4475 [1] was 10.8%; with CAL-51 [2], 2.3%; in the experiment on MDA-MB-453 [3], 10.9%; in the experiment on HDQ-P1 [4], -0.08%; with CAL-148 [5] it was 1.6%; with CAL-85-1 [6], 1.89%.

Consider `COCC[n+]1c2c(n(Cc3cnccn3)c1C)C(=O)c1ccccc1C2=O` [YM155] (3000 nM), for which the normalised viability with DU-4475 [7] was determined as 0.2%; with CAL-51 [8] it was 1.46%; in the experiment with MDA-MB-453 [9], 2.38%; in the experiment on HDQ-P1 [10], 0.93%; in the experiment with CAL-148 [11] it was 2.73%; in the experiment with CAL-85-1 [12], 2.51%.
